The target in the experiment is T1, human H1 receptor (Homo sapiens, UniProt P35367).
T1 construct: expressed in transfected cells; host or cells: CHO cells (crude membranes)
T1 sequence (P35367 whole entry): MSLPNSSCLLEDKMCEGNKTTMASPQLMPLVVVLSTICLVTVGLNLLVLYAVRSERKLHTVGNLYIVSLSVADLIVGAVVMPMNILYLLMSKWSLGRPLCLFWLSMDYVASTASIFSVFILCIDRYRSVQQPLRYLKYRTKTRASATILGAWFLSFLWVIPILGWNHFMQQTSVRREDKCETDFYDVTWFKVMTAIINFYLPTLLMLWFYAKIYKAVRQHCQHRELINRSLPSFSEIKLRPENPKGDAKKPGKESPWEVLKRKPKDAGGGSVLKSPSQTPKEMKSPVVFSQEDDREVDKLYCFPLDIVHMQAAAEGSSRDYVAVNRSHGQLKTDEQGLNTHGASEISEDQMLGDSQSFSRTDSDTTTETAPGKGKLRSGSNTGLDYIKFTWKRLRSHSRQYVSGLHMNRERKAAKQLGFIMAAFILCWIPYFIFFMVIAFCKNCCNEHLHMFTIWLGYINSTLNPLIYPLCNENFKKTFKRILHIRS
Put plainly: Human histamine H1 receptor binding assay. The following applies: competition with 1.5 nM [pyridinyl-5-3H] Pyrilamine, crude membranes of CHO cells transfected with human H1 receptor; Ki from IC50 by Cheng-Prusoff. The protocol:
Compounds of the present invention may be evaluated for binding to the histamine H1 receptor by a standard binding assay. […] Pyrilamine (˜30 Ci/mmol, Amersham TRK608) in the presence of varying concentrations of competing ligand. Non-specific binding is determined in the presence of excess (1 μM) doxepin. Bound and free ligand are separated by rapid vacuum filtration using a Packard 96-well cell harvester onto UniFilter GF/C filter plates (PerkinElmer) that has been pretreated with 1% polyethyleneimine. The filter plates are then washed with 600 μl phosphate buffered saline containing 0.01% (v/v) Triton-X100. Bound radioligand is determined by scintillation counting using a TopCount-NXT (Packard). Binding data is analyzed by nonlinear, least-squares curve fitting algorithms using GraphPad Prism (GraphPad Software, Inc. San Diego, Calif.) or ActivityBase (IDBS, Guildford, Surrey, UK).
A word on the Ki: it is the dissociation constant of the complex between target and ligand, obtained from inhibition or displacement. `C[C@H](c1cncs1)c1c(CCN(C)C)sc2ccccc12` [Compound 17-4, Dimethyl-{2-[3-((S)-1-thiazol-5-yl-ethyl)-benzo[b]thiophen-2-yl]-ethyl}-amine]: the inhibitory constant (Ki) was not above 1 µM.

Turning to `CC(c1nccs1)c1c(CCN(C)C)sc2ccccc12` (stereo not shown) [Compound 8-3, Dimethyl-{2-[3-(1-thiazol-2-yl-ethyl)-benzo[b]thiophen-2-yl]-ethyl}-amine], the Ki was not above 1 µM.

With `C[C@@H](c1cccnc1F)c1c(CCN(C)C)sc2ccccc12` [Compound 15-9, Dimethyl-(2-{3-[(S)-1-(2-fluoro-pyridin-3-yl)-ethyl]-benzo[b]thiophen-2-yl}-ethyl)-amine], the Ki was not above 1 µM.

Regarding `COc1cccnc1C(C)c1c(CCN(C)C)sc2ccccc12` (stereo not shown) [Compound 6-10, Dimethyl-(2-{3-[1-(3-methoxy-pyridin-2-yl)-ethyl]-benzo[b]thiophen-2-yl}-ethyl)-amine], the Ki was not above 1 µM.

Compound `CN(C)CCc1sc2ccccc2c1Cc1nn(C)cc1Cl` [Compound 13-14, {2-[3-(4-Chloro-1-methyl-1H-pyrazol-3-ylmethyl)-benzo[b]thiophen-2-yl]-ethyl}-dimethyl-amine] had a Ki not above 1 µM.

Take `CC(c1ccccn1)c1c(CCN(C)C)sc2ccccc12` (stereo not shown) [Compound 6-3, Dimethyl-{2-[3-(1-pyridin-2-yl-ethyl)-benzo[b]thiophen-2-yl]-ethyl}-amine]: the Ki was not above 1 µM.

`CC(c1ncccc1F)c1c(CCN(C)C)sc2ccccc12` (stereo not shown) [Compound 18-3, (2-{3-[1-(3-Fluoro-pyridin-2-yl)-ethyl]-benzo[b]thiophen-2-yl}-ethyl)-dimethyl-amine] returned an inhibition constant Ki not above 1 µM.

`C[C@H](c1cccnc1F)c1c(CCN(C)C)sc2ccccc12` [Compound 15-8, Dimethyl-(2-{3-[(R)-1-(2-fluoro-pyridin-3-yl)-ethyl]-benzo[b]thiophen-2-yl}-ethyl)-amine] returned a Ki not above 1 µM.

As to `CC(c1cnccn1)c1c(CCN(C)C)sc2ccccc12` (stereo not shown) [Compound 11-2, Dimethyl-{2-[3-(1-pyrazin-2-yl-ethyl)-benzo[b]thiophen-2-yl]-ethyl}-amine], the Ki was not above 1 µM.

On to `CC(c1cscn1)c1c(CCN2CCCC2)sc2ccccc12` (stereo not shown) [Compound 19-4, 4-{1-[2-(2-Pyrrolidin-1-yl-ethyl)-benzo[b]thiophen-3-yl]-ethyl}-thiazole], for which the Ki was not above 1 µM.

`Cc1ccnc(C(C)c2c(CCN(C)C)sc3ccccc23)c1` (stereo not shown) [Compound 5-3, Dimethyl-(2-{3-[1-(4-methyl-pyridin-2-yl)-ethyl]-benzo[b]thiophen-2-yl}-ethyl)-amine]: the Ki is not above 1 µM.

With `C=C(c1ccncc1)c1c(CCN(C)C)sc2ccccc12` [Compound 6-5, Dimethyl-{2-[3-(1-pyridin-4-yl-vinyl)-benzo[b]thiophen-2-yl]-ethyl}-amine], the Ki is not above 1 µM.

Take `COc1ncccc1[C@H](C)c1c(CCN(C)C)sc2ccccc12` [Compound 15-6, Dimethyl-(2-{3-[(S)-1-(2-methoxy-pyridin-3-yl)-ethyl]-benzo[b]thiophen-2-yl}-ethyl)-amine]: the Ki was not above 1 µM.

In turn, `C[C@@H](c1cscn1)c1c(CCN(C)C)sc2ccccc12` [Compound 16-3, Dimethyl-{2-[3-((R)-1-thiazol-4-yl-ethyl)-benzo[b]thiophen-2-yl]-ethyl}-amine] showed a Ki not above 1 µM.

The compound `CC(c1ccccn1)c1c(CCN2CCCC2)sc2ccccc12` (stereo not shown) [Compound 20-1, 2-{1-[2-(2-Pyrrolidin-1-yl-ethyl)-benzo[b]thiophen-3-yl]-ethyl}-pyridine] showed a Ki not above 1 µM.

For `C[C@@H](c1ncccc1F)c1c(CCN(C)C)sc2ccccc12` [Compound 18-4, (2-{3-[(R)-1-(3-Fluoro-pyridin-2-yl)-ethyl]-benzo[b]thiophen-2-yl}-ethyl)-dimethyl-amine], the Ki is not above 1 µM.

As to `CC(c1ccncc1)c1c(CCN(C)C)sc2ccccc12` (stereo not shown) [Compound 6-7, Dimethyl-{2-[3-(1-pyridin-4-yl-ethyl)-benzo[b]thiophen-2-yl]-ethyl}-amine], the Ki was not above 1 µM.

As to `C[C@H](c1ccccn1)c1c(CCN(C)C)sc2ccccc12` [Compound 12-1, Dimethyl-{2-[3-((S)-1-pyridin-2-yl-ethyl)-benzo[b]thiophen-2-yl]-ethyl}-amine], the Ki is not above 1 µM.

As for `CN(C)CCc1sc2ccccc2c1Cc1cncnc1` [Compound 13-4, Dimethyl-[2-(3-pyrimidin-5-ylmethyl-benzo[b]thiophen-2-yl)-ethyl]-amine], the Ki is not above 1 µM.

Compound `C=C(c1ccccn1)c1c(CCN(C)C)sc2cc(C)ccc12` [Compound 4-6, Dimethyl-{2-[6-methyl-3-(1-pyridin-2-yl-vinyl)-benzo[b]thiophen-2-yl]-ethyl}-amine] yielded a Ki not above 1 µM.

For `CC(c1cccnc1Cl)c1c(CCN(C)C)sc2ccccc12` (stereo not shown) [Compound 25-4, (2-{3-[1-(2-Chloro-pyridin-3-yl)-ethyl]-benzo[b]thiophen-2-yl}-ethyl)-dimethyl-amine], the Ki is not above 1 µM.

`C[C@H](c1ccccn1)c1c(CCN2CCCC2)sc2ccccc12` [Compound 20-2, 2-{(S)-1-[2-(2-Pyrrolidin-1-yl-ethyl)-benzo[b]thiophen-3-yl]-ethyl}-pyridine] returned a Ki not above 1 µM.

The compound `COc1ncccc1C(C)c1c(CCN(C)C)sc2ccccc12` (stereo not shown) [Compound 15-4, Dimethyl-(2-{3-[1-(2-methoxy-pyridin-3-yl)-ethyl]-benzo[b]thiophen-2-yl}-ethyl)-amine] registered a Ki not above 1 µM.

`C[C@H](c1ncccc1F)c1c(CCN(C)C)sc2ccccc12` [Compound 18-5, (2-{3-[(S)-1-(3-Fluoro-pyridin-2-yl)-ethyl]-benzo[b]thiophen-2-yl}-ethyl)-dimethyl-amine] showed a Ki not above 1 µM.

In turn, `C[C@H](c1ccccn1)c1c(CCN2CCC2)sc2ccccc12` [Compound 20-9, 2-{(S)-1-[2-(2-Azetidin-1-yl-ethyl)-benzo[b]thiophen-3-yl]-ethyl}-pyridine] yielded a Ki not above 1 µM.

On to `C[C@H](c1ccc(F)cn1)c1c(CCN(C)C)sc2ccccc12` [Compound 7-5, (2-{3-[(S)-1-(5-Fluoro-pyridin-2-yl)-ethyl]-benzo[b]thiophen-2-yl}-ethyl)-dimethyl-amine], for which the Ki was not above 1 µM.

`CC(c1cscn1)c1c(CCN(C)C)sc2ccccc12` (stereo not shown) [Compound 16-2, Dimethyl-{2-[3-(1-thiazol-4-yl-ethyl)-benzo[b]thiophen-2-yl]-ethyl}-amine] had a Ki not above 1 µM.

With `CN(C)CCc1sc2ccccc2c1Cc1nccn1C` [Compound 13-15, Dimethyl-{2-[3-(1-methyl-1H-imidazol-2-ylmethyl)-benzo[b]thiophen-2-yl]-ethyl}-amine], the Ki is not above 1 µM.

Consider `CNCCc1sc2ccccc2c1[C@@H](C)c1ccccn1` [Compound 21-1, Methyl-{2-[3-((R)-1-pyridin-2-yl-ethyl)-benzo[b]thiophen-2-yl]-ethyl}-amine], for which the Ki was not above 1 µM.

For `CN(C)CCc1sc2ccccc2c1Cc1cnccn1` [Compound 13-9, Dimethyl-[2-(3-pyrazin-2-ylmethyl-benzo[b]thiophen-2-yl)-ethyl]-amine], the Ki was not above 1 µM.

With `CN(C)CCc1sc2ccccc2c1Cc1nccs1` [Compound 13-5, Dimethyl-[2-(3-thiazol-2-ylmethyl-benzo[b]thiophen-2-yl)-ethyl]-amine], the Ki is not above 1 µM.

Regarding `CC(c1cncs1)c1c(CCN(C)C)sc2ccccc12` (stereo not shown) [Compound 17-2, Dimethyl-{2-[3-(1-thiazol-5-yl-ethyl)-benzo[b]thiophen-2-yl]-ethyl}-amine], the inhibition constant (Ki) was not above 1 µM.

As to `CC(c1cccnc1F)c1c(CCN(C)C)sc2ccccc12` (stereo not shown) [Compound 15-7, Dimethyl-(2-{3-[1-(2-fluoro-pyridin-3-yl)-ethyl]-benzo[b]thiophen-2-yl}-ethyl)-amine], the Ki was not above 1 µM.

With `CNCCc1sc2ccccc2c1C(C)c1ccccn1` (stereo not shown) [Compound 9-1, Methyl-{2-[3-(1-pyridin-2-yl-ethyl)-benzo[b]thiophen-2-yl]-ethyl}-amine], the Ki is not above 1 µM.

Consider `CN(C)CCc1sc2ccccc2c1Cc1cncn1C` [Compound 13-11, Dimethyl-{2-[3-(3-methyl-3H-imidazol-4-ylmethyl)-benzo[b]thiophen-2-yl]-ethyl}-amine], for which the Ki was not above 1 µM.

On to `C[C@@H](c1ccc(F)cn1)c1c(CCN(C)C)sc2ccccc12` [Compound 7-4, (2-{3-[(R)-1-(5-Fluoro-pyridin-2-yl)-ethyl]-benzo[b]thiophen-2-yl}-ethyl)-dimethyl-amine], for which the Ki was not above 1 µM.

For `CC(c1ccccn1)c1c(CCN2CCC(O)C2)sc2ccccc12` (stereo not shown) [Compound 20-6, 1-{2-[3-(1-Pyridin-2-yl-ethyl)-benzo[b]thiophen-2-yl]-ethyl}-pyrrolidin-3-ol], the Ki is not above 1 µM.

`CN(C)CCc1sc2ccccc2c1Cc1cccnc1F` [Compound 24-2, {2-[3-(2-Fluoro-pyridin-3-ylmethyl)-benzo[b]thiophen-2-yl]-ethyl}-dimethyl-amine] gave a Ki not above 1 µM.

The compound `C[C@@H](c1ccccn1)c1c(CCN2CCCC2)sc2ccccc12` [Compound 20-3, 2-{(R)-1-[2-(2-Pyrrolidin-1-yl-ethyl)-benzo[b]thiophen-3-yl]-ethyl}-pyridine] gave a Ki not above 1 µM.

With `Cc1ccc2c([C@@H](C)c3ccccn3)c(CCN(C)C)sc2c1` [Compound 4-3, Dimethyl-{2-[6-methyl-3-((R)-1-pyridin-2-yl-ethyl)-benzo[b]thiophen-2-yl]-ethyl}-amine], the Ki was not above 1 µM.

The record behind these values is patent US7393865B2, “Sleep inducing compounds and methods relating thereto” (Neurocrine Biosciences, Inc., priority 2004, dated 2008).
